In ChEMBL document CHEMBL1201862, “PubChem BioAssay data set” (2004):
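A five-concentration, 48-hour dose response in 96-well plates underlies each endpoint, interpolated linearly between surrounding concentrations. GI50: concentration for 50% inhibition of growth.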 The source made the active and inactive calls. Rule as the data show it: active = GI50 up to about 1.1 µM and inactive = higher.

What was measured:
Test in all cases: NCI-60 cell line screen, 48 h
SNB-19 = tested on: SNB-19
UACC-257 = tested on: UACC-257
786-0 = tested on: 786-0
A498 = tested on: A498
K562 = tested on: K562
SN12C = tested on: SN12C
LOX IMVI = tested on: LOX IMVI
KM12 = tested on: KM12
HCT-116 = tested on: HCT-116
BT-549 = tested on: BT-549
SW-620 = tested on: SW-620
SF-539 = tested on: SF-539
SNB-75 = tested on: SNB-75
HOP-62 = tested on: HOP-62
M14 = tested on: M14
DU-145 = tested on: DU-145
CAKI-1 = tested on: CAKI-1
OVCAR-5 = tested on: OVCAR-5
PC-3 = tested on: PC-3

Compound | GI50 (SNB-19) | GI50 (UACC-257) | GI50 (786-0) | GI50 (A498) | GI50 (K562) | GI50 (SN12C) | GI50 (LOX IMVI) | GI50 (KM12) | GI50 (HCT-116) | GI50 (BT-549) | GI50 (SW-620) | GI50 (SF-539) | GI50 (SNB-75) | GI50 (HOP-62) | GI50 (M14) | GI50 (DU-145) | GI50 (CAKI-1) | GI50 (OVCAR-5) | GI50 (PC-3)
CC(C)C(/C=C/c1ccc(Cl)cc1)=N\NC(=O)N/N=C(/C=C/c1ccc(Cl)cc1)C(C)C | 19.8 µM (inactive) | 57.5 µM (inactive) | 17.6 µM (inactive) | 18.1 µM (inactive) | 47.8 µM (inactive) | 18.4 µM (inactive) | > 10 µM (inactive) | > 100 µM (inactive) | 20.2 µM (inactive) | 34.4 µM (inactive) | 82 µM (inactive) | 16.7 µM (inactive) | 21.7 µM (inactive) | 27.9 µM (inactive) | 24.2 µM (inactive) | > 100 µM (inactive) | 18.5 µM (inactive) | > 100 µM (inactive) | > 100 µM (inactive)
CC(C)(C)c1cc(C(=O)/C=C/c2ccc3c(c2)CCO3)cc(C(C)(C)C)c1O | 2.94 µM (inactive) | 0.792 µM (active) | 1.12 µM (active) | 1.12 µM (active) | 0.938 µM (active) | 2.99 µM (inactive) | 1.57 µM (inactive) | 0.49 µM (active) | 1.2 µM (inactive) | 1.8 µM (inactive) | 1.13 µM (inactive) | 0.619 µM (active) | 0.733 µM (active) | 4.15 µM (inactive) | 1.17 µM (inactive) | 1.39 µM (inactive) | 0.724 µM (active) | 2.39 µM (inactive) | 0.891 µM (active)
C=C1C[C@@H]2O[C@H]3[C@H]4[C@@H](C[C@@H](C)[C@@H](OC(C)=O)[C@H]42)[C@@H](C)CO[C@@]3(C)[C@H](OC(=O)CCCCCCC)CC1=O | 26.5 µM (inactive) | 14.4 µM (inactive) | 15.7 µM (inactive) | 17.2 µM (inactive) | > 10 µM (inactive) | 16 µM (inactive) | 16.5 µM (inactive) | 12.1 µM (inactive) | 15.1 µM (inactive) | 18.1 µM (inactive) | 15.2 µM (inactive) | 22 µM (inactive) | 12.1 µM (inactive) | 16 µM (inactive) | 15.6 µM (inactive) | 17.6 µM (inactive) | 19.4 µM (inactive) | 7.29 µM (inactive) | 9.82 µM (inactive)
Cc1nc(-c2ccc(Cl)cc2)cn2c1nc1ccccc12 | > 100 µM (inactive) | > 100 µM (inactive) | > 100 µM (inactive) | > 100 µM (inactive) | > 72.3 µM (inactive) | > 100 µM (inactive) | > 100 µM (inactive) | > 82.6 µM (inactive) | > 100 µM (inactive) | > 93.5 µM (inactive) | > 100 µM (inactive) | > 61.4 µM (inactive) | > 100 µM (inactive) | > 100 µM (inactive) | > 72.3 µM (inactive) | > 100 µM (inactive) | > 100 µM (inactive) | > 31 µM (inactive) | > 100 µM (inactive)
O=C(/C=C/c1ccc(O)c(-c2cc(C(=O)/C=C/c3ccc(O)cc3)c(O)cc2O)c1)c1ccc(O)cc1O [RHUSCHALCONE VI] | 28.6 µM (inactive) | > 50 µM (inactive) | 47.6 µM (inactive) | > 50 µM (inactive) | 13.6 µM (inactive) | 20.4 µM (inactive) | 14.5 µM (inactive) | 13.3 µM (inactive) | 11.5 µM (inactive) | 15.5 µM (inactive) | 19.5 µM (inactive) | 11.7 µM (inactive) | 13.3 µM (inactive) | 30.9 µM (inactive) | 49.1 µM (inactive) | 40.5 µM (inactive) | > 50 µM (inactive) | > 50 µM (inactive) | 22.5 µM (inactive)
COc1ccc2ccc3oc(=O)c(C)cc3c2c1 | > 100 µM (inactive) | > 100 µM (inactive) | > 100 µM (inactive) | > 100 µM (inactive) | > 100 µM (inactive) | > 100 µM (inactive) | > 100 µM (inactive) | > 100 µM (inactive) | > 100 µM (inactive) | > 100 µM (inactive) | > 100 µM (inactive) | > 100 µM (inactive) | 28.8 µM (inactive) | > 100 µM (inactive) | > 100 µM (inactive) | > 100 µM (inactive) | > 100 µM (inactive) | > 100 µM (inactive) | > 100 µM (inactive)
